In PubChem BioAssay (NCI):
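Growth conditions: 96-well plates. Treatment: test compound, 48 hours, 5 concentrations. Analysis: linear interpolation between bracketing concentrations; unreached endpoints set to highest concentration. The concentration for full growth arrest is given as TGI.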

How the values were obtained:
Assay in all cases: NCI-60 cell line screen, 48 h
HCT-116 colon = tested on: HCT-116 colon
OVCAR-8 ovarian = tested on: OVCAR-8 ovarian
NCI-H226 lung = tested on: NCI-H226 lung
LOX IMVI melanoma = tested on: LOX IMVI melanoma
IGROV1 ovarian = tested on: IGROV1 ovarian
SR leukemia = tested on: SR leukemia
SF-268 CNS = tested on: SF-268 CNS
UACC-257 melanoma = tested on: UACC-257 melanoma
A549 NSCLC = tested on: A549 NSCLC
HCT-15 colon = tested on: HCT-15 colon
HL-60(TB) leukemia = tested on: HL-60(TB) leukemia
OVCAR-5 ovarian = tested on: OVCAR-5 ovarian
RXF 393 renal = tested on: RXF 393 renal
U251 CNS = tested on: U251 CNS
HCC-2998 colon = tested on: HCC-2998 colon
K-562 leukemia = tested on: K-562 leukemia
ACHN renal = tested on: ACHN renal
TK-10 renal = tested on: TK-10 renal
UO-31 renal = tested on: UO-31 renal
MALME-3M melanoma = tested on: MALME-3M melanoma
HOP-92 NSCLC = tested on: HOP-92 NSCLC
OVCAR-4 ovarian = tested on: OVCAR-4 ovarian
RXF-631 renal = tested on: RXF-631 renal
DLD-1 colon = tested on: DLD-1 colon
SK-MEL-28 melanoma = tested on: SK-MEL-28 melanoma
HOP-18 NSCLC = tested on: HOP-18 NSCLC
OVCAR-3 ovarian = tested on: OVCAR-3 ovarian
RPMI-8226 leukemia = tested on: RPMI-8226 leukemia
NCI-H23 lung = tested on: NCI-H23 lung
SNB-75 CNS = tested on: SNB-75 CNS
786-0 renal = tested on: 786-0 renal
EKVX NSCLC = tested on: EKVX NSCLC
DMS 114 small cell lung = tested on: DMS 114 small cell lung
CAKI-1 renal = tested on: CAKI-1 renal
KM12 colon = tested on: KM12 colon
CCRF-CEM leukemia = tested on: CCRF-CEM leukemia
DMS 273 small cell lung = tested on: DMS 273 small cell lung
SK-MEL-2 melanoma = tested on: SK-MEL-2 melanoma
SW-620 colon = tested on: SW-620 colon
SNB-78 CNS = tested on: SNB-78 CNS
NCI-H522 lung = tested on: NCI-H522 lung
SF-539 CNS = tested on: SF-539 CNS
COLO 205 colon = tested on: COLO 205 colon
HT29 colon = tested on: HT29 colon
SN12C renal = tested on: SN12C renal
KM20L2 colon = tested on: KM20L2 colon
UACC-62 melanoma = tested on: UACC-62 melanoma
MOLT-4 leukemia = tested on: MOLT-4 leukemia
M19-MEL melanoma = tested on: M19-MEL melanoma
LXFL 529 NSCLC = tested on: LXFL 529 NSCLC
HOP-62 NSCLC = tested on: HOP-62 NSCLC
M14 melanoma = tested on: M14 melanoma
SF-295 CNS = tested on: SF-295 CNS
SK-OV-3 ovarian = tested on: SK-OV-3 ovarian
SNB-19 CNS = tested on: SNB-19 CNS
SK-MEL-5 melanoma = tested on: SK-MEL-5 melanoma
NCI-H460 lung = tested on: NCI-H460 lung

Measured: TGI

COc1cc2cnc3c4cc(OC)c(OC(C)C)cc4ccc3c2cc1OC
> 100 µM: HCT-116 colon | OVCAR-8 ovarian | NCI-H226 lung | LOX IMVI melanoma | IGROV1 ovarian | SR leukemia | SF-268 CNS | UACC-257 melanoma | A549 NSCLC | HCT-15 colon | HL-60(TB) leukemia | OVCAR-5 ovarian | RXF 393 renal | U251 CNS | HCC-2998 colon | K-562 leukemia | ACHN renal | TK-10 renal | UO-31 renal | MALME-3M melanoma | HOP-92 NSCLC | OVCAR-4 ovarian | RXF-631 renal | DLD-1 colon | SK-MEL-28 melanoma | HOP-18 NSCLC | OVCAR-3 ovarian | RPMI-8226 leukemia | NCI-H23 lung | SNB-75 CNS | 786-0 renal | EKVX NSCLC | DMS 114 small cell lung | CAKI-1 renal | KM12 colon | CCRF-CEM leukemia | DMS 273 small cell lung | SK-MEL-2 melanoma | SW-620 colon | SNB-78 CNS | NCI-H522 lung | SF-539 CNS | COLO 205 colon | HT29 colon | SN12C renal | KM20L2 colon | UACC-62 melanoma | MOLT-4 leukemia | M19-MEL melanoma | LXFL 529 NSCLC | HOP-62 NSCLC | M14 melanoma | SF-295 CNS | SK-OV-3 ovarian | SNB-19 CNS | SK-MEL-5 melanoma | NCI-H460 lung
